Experimental data as given in article PMC7802073, “Small Molecule Inhibitors of the Bacterioferritin (BfrB)–Ferredoxin (Bfd) Complex Kill Biofilm-Embedded Pseudomonas aeruginosa Cells” (ACS Infectious Diseases, 2020).
Values after ≈ are worked out from the molar mass of the structure shown.

What was measured:
BfrB = BfrB (Pseudomonas aeruginosa, UniProt Q9HY79); experiment: Dissociation constant (Kd) for BfrB by fluorescence polarization; assay type: binding
Description: Dissociation constants for the interaction between BfrB and 3-aminoisoindoline-1,3-dione derivatives (Table 1, Figure S1) were measured in vitro with a fluorescence polarization method based on the intrinsic fluorescence of the isoindoline-1,3-dione moiety, as described previously.[25]
25 (A) and KM-5-66 (B) for BfrB, evaluated by fluorescence polarization, as described previously1.
Values were obtained in 100 mM potassium phosphate buffer (pH 7.6) containing 1 mM TCEP and
0.5% DMSO. The initial concentrations of KM-5-25 and KM-5-66 were 5 µM. The Kd values are the
average and standard deviation from three independent measurements. […]

Aqueous solubility = assay type: physicochemical; settings: aqueous media; read-out: soluble in aqueous media to
[1] = system: Pellicles of P. aeruginosa PAO1 expressing EYFP; experiment: Pellicle biofilm assay, CLSM imaging and COMSTAT viable biomass; assay type: cell-based, Pseudomonas aeruginosa; settings: 24 h, approximately 1.2× IC50 (KM-5-25 80 μM, KM-5-66 50 μM)
Description: Pellicle biofilms of EYFP-expressing P. aeruginosa PAO1 or clinical isolates were grown in PI media supplemented with 20 μM Fe. Starter cultures were diluted to OD600 = 0.001 in 4 mL media, placed in 35 × 10 mm Petri dishes and incubated statically at 30 °C for 48 h. The pellicles were transferred onto circular (1.5 cm diameter) glass coverslips by gently allowing the surface of a coverslip to contact a pellicle. The pellicle-adhered coverslip was washed in PBS and then deposited on top of 1.5 mL AB challenge media contained in a well of a 12-well microplate, with the pellicle exposed to the media. […] The coverslip-adhered pellicles were exposed to challenge media at 30 °C for 24 h, changing the challenge media every 12 h by transferring the pellicle-adhered coverslip to a new plate containing prewarmed challenge media.
Excess fluorescent dye was washed with PBS, the coverslip was mounted on a glass slide using 5 μL SlowFade (Invitrogen Life Technologies) and the edges sealed with fingernail polish. CLSM image stacks (z-step size of 0.3 μm) were acquired with the aid of a Leica TCS SP8 microscope, as described above. Quantitative analysis was performed by determination of pellicle biomass using COMSTAT[55] and the Otsu method of automatic thresholding.[86]

[2] = system: P. aeruginosa clinical isolate PA_1076058; experiment: Viable cells (CFU/mL) dispersed from pellicle biofilms of a clinical isolate; assay type: cell-based, Pseudomonas aeruginosa; settings: PA_1076058 pellicles, 24 h, 1.2× IC50 (KM-5-25 80 μM, KM-5-66 50 μM)
Description: (§1) Pellicle biofilms were grown as described above.

[3] = system: P. aeruginosa clinical isolate PA_1081725; experiment: as above; assay type: cell-based, Pseudomonas aeruginosa; settings: PA_1081725 pellicles, 24 h, 1.2× IC50 (KM-5-25 80 μM, KM-5-66 50 μM)
Description: as §1

[4] = system: iron stored in BfrB in pellicle-embedded P. aeruginosa PAO1 cells; experiment: Iron stored in BfrB, native PAGE stained with Ferene S, densitometry; assay type: cell-based, Pseudomonas aeruginosa; settings: 2-day old pellicles, 24 h, KM-5-25 40 μM or KM-5-66 20 μM
[5] = system: P. aeruginosa PAO1 cells dispersed from pellicles; experiment: Total intracellular iron in biofilm-embedded cells; assay type: cell-based, Pseudomonas aeruginosa; settings: 2-day old pellicles, 24 h, KM-5-25 40 μM or KM-5-66 20 μM
Description: Pellicle biofilms were grown for 48 h as described above. The pellicles were transferred onto square (2 × 2 cm) glass coverslips by gently contacting the pellicle with the coverslip. […] After the zirconia beads had sedimented, a 100 μL aliquot was sampled from the cell suspension for plating and enumeration of viable cells and a 14 mL sample was used to harvest the cells by centrifugation (20 min, 400 rpm). The cell pellet was resuspended in 1 mL PBS, transferred to a 1.5 mL microcentrifuge tube, centrifuged for 10 min at 12 500 rpm at 4 °C and the cell pellet frozen at −80 °C. The frozen cells were subjected to three freeze–thaw cycles and then lysed by addition of 200 μL of lysis buffer (50 mM Tris-HCl buffer (pH 8.0) containing 10% (v/v) glycerol, 20 mg/mL lysozyme, 0.2 mg/mL DNase, 0.1 M NaCl, 1 mM MgSO4 and 1% (v/v) Triton-X100) and incubated at ambient temperature (30 min) and at 37 °C (30 min). […] Levels of total intracellular iron were determined as reported previously:[23],[87] […] The iron concentration was measured from the absorbance of the Fe^2+–Ferene S complex (ε593 = 34.5 mM^–1 cm^–1),[88] normalized by the viable cell counts and reported as Fe atoms per cell.

BfrB, sequence (Q9HY79 whole entry): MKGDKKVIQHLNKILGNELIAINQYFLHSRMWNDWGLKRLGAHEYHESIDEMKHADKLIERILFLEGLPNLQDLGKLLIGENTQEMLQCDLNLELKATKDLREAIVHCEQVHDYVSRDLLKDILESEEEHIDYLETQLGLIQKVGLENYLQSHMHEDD

SMILES: O=C1NC(=O)c2c(NCCCc3cc(O)cc(Cl)c3)cccc21 [KM-5-66, 4-((3-(3-Chloro-5-hydroxyphenyl)propyl)amino)isoindoline-1,3-dione]
- Kd (BfrB): 0.35 ± 0.05 µM
- solubility (Aqueous solubility): ~80 µM (≈ 26.5 µg/mL)
- cells in the pellicle killed (COMSTAT) [1]: ~85%
- reduction of viable cells [2]: approximately 80%
- reduction of viable cells [3]: approximately 80%
- iron in BfrB relative to cells in untreated pellicles (Ferene S band peak area) [4]: ~3 fold
- total intracellular iron normalized to viable cell counts, relative to untreated biofilms [5]: ~2.5 fold

SMILES: O=C1NC(=O)c2c(NCc3cc(Cl)ccc3O)cccc21 [KM-5-25, 4-((5-Chloro-2-hydroxybenzyl)amino)isoindoline-1,3-dione]
- Kd (BfrB): 4 ± 0.6 µM
- solubility (Aqueous solubility): ~110 µM (≈ 33.3 µg/mL)
- cells in the pellicle killed (COMSTAT) [1]: ~85%
- reduction of viable cells [2]: approximately 80%
- reduction of viable cells [3]: approximately 80%
- iron in BfrB relative to cells in untreated pellicles (Ferene S band peak area) [4]: ~3 fold
- total intracellular iron normalized to viable cell counts, relative to untreated biofilms [5]: ~2.5 fold
